Measurements published in patent publication US20210308319A1, “TRANSITION TO TRANSLUCENT SUTURES” (University of Pittsburgh - Of the Commonwealth System of …, priority 2018, published 2021).

Test: UV-Vis spectroscopy of the rate of dissolution of dyes in water
Type: physicochemical
Conditions: excess dye in cuvette, 320-800 nm, 0 to 10 minutes
Method: An excess mass of both crystal violet and violet stearate was added to separate, clean polystyrene cuvettes. The spectrometer was calibrated to measure absorbance over the range of 320-800 nm. A background UV-Vis spectrum was then collected using a clean cuvette filled with distilled water (this spectrum is later subtracted from the dye solution spectrums to give the absorbance resulting from the dye only). The dye containing cuvettes were then loaded into the UV-Vis spectrometer. Water was then carefully syringed down the side of the first cuvette until the cuvettes were filled, and the spectrum immediately collected upon addition. […] The 20 minutes spectra are not included due to the fact they are very similar to the 10 minute spectra for both dyes tested.

| Compound | Change of UV-Vis absorbance spectra over time after addition of water (rate of dissolution) |
| --- | --- |
| CN(C)c1ccc(C(=C2C=CC(=[N+](C)C)C=C2)c2ccc(N(C)C)cc2)cc1 [Crystal Violet, crystal violet] | do not change over time at all |
| CCCCCCCCCCCCCCCCCC(=O)[O-].CN(C)c1ccc(C(=C2C=CC(=[N+](C)C)C=C2)c2ccc(N(C)C)cc2)cc1 [Violet Stearate] | definite increase in absorbance over time |
